Values of other authors as cited in patent US20110189281A1, “TELMISARTAN AND HYDROCHLOROTHIAZIDE COMBINATION THERAPY” (BOEHRINGER INGELHEIM INTERNATIONAL GMBH, priority 2004, published 2011).

Details: physiological pH range of the gastrointestinal tract, pH 1 to 7; free acid form

Solubility in aqueous systems: very poor solubility
SMILES: CCCc1nc2c(C)cc(-c3nc4ccccc4n3C)cc2n1Cc1ccc(-c2ccccc2C(=O)O)cc1 [Telmisartan, 4′-[(1,4′-dimethyl-2′-propyl-[2,6′-bi-1H-benzimidazol]-1′-yl)methyl]-[1,1′-biphenyl]-2-carboxylic acid]
